How the values were obtained:
Format in all cases: in vivo, C57BL/6 mice
total retinal thickness = experiment: H&E sections of retinal tissues, total retinal thickness by ImageJ; conditions: Day 35, p<0.05
Protocol: The C57BL/6 mice, which weighed between 23 and 25 g, were divided into seven groups randomly. In each group, the six mice induced by blue light successfully were incorporated in experiments. The samples dissolved in deuterium-depleted water (DDW) were fed to mice through oral tubes once a day. The groups were named and introduced as follows: • (1) Solvent not classified group (NC): The mice were fed with 0.2 ml deuterium-depleted water (DDW) through tubes; • (2) Negative control group (Blue light (BL)): The mice were fed with 0.2 ml deuterium-depleted water (DDW) through tubes and exposed to blue light; • (3) Low-dosage Y7 probiotics group […]): The mice were fed with low-dosage Y7 probiotics (probiotic counts of 1.0×10^8 CFU/ml dissolved in 0.2 ml DDW per day) and exposed to blue light; • (4) High-dosage Y7 probiotics group […]): The mice were fed with high-dosage Y7 probiotics (probiotic counts of 1.0×10^9 CFU/ml dissolved in 0.2 ml DDW per day) and exposed to blue light; • (5) Positive control group (lutein (LU)): The mice were fed with lutein and exposed to blue light. The recommended human dosage of lutein is 30 mg. The mouse cage (48×25×20 cm) placed inside a stainless ventilated box was equipped with blue light boards as blue light sources around and above. In the experiment of animals exposed to blue light, six-week-old mice staying in the mouse cage were fed with drinking water as well as fodders and exposed to 400 Lux blue light illumination under the light-dark cycle of 12-hour light and 12-hour dark. The experiment was aimed at causing mice' late dry macular disease induced by chronic light injuries for simulating a human being's macular disease after long-term exposure to short-wavelength blue light from 3C products in daily life. The eyes of a mouse sacrificed after the experiment on Day 35 were taken out for H&E stains. The section of a retinal tissue was checked for any change in each layer of a sacrificed mouse's retina and compared with experimental results of SD-OCT. The images for a fraction of retina below the pupil vertically and nearest to optic nerves were captured from a section through the 200× magnification, as shown in FIG. 6a.

catalase (CAT) = experiment: serum antioxidant enzyme activity by ELISA: CAT
Protocol: The C57BL/6 mice, which weighed between 23 and 25 g, were divided into seven groups randomly. In each group, the six mice induced by blue light successfully were incorporated in experiments. The samples dissolved in deuterium-depleted water (DDW) were fed to mice through oral tubes once a day. The groups were named and introduced as follows: • (1) Solvent not classified group (NC): The mice were fed with 0.2 ml deuterium-depleted water (DDW) through tubes; • (2) Negative control group (Blue light (BL)): The mice were fed with 0.2 ml deuterium-depleted water (DDW) through tubes and exposed to blue light; • (3) Low-dosage Y7 probiotics group (Y7L): The mice were fed with low-dosage Y7 probiotics (probiotic counts of 1.0×10^8 CFU/ml dissolved in 0.2 ml DDW per day) and exposed to blue light; • (4) High-dosage Y7 probiotics group (Y7H): The mice were fed with high-dosage Y7 probiotics (probiotic counts of 1.0×10^9 CFU/ml dissolved in 0.2 ml DDW per day) and exposed to blue light; • (5) Positive control group (lutein (LU)): The mice were fed with lutein and exposed to blue light. The recommended human dosage of lutein is 30 mg.
The mouse cage (48×25×20 cm) placed inside a stainless ventilated box was equipped with blue light boards as blue light sources around and above. […]
The performance of antioxidant enzymes in serums was analyzed through the enzyme-linked immunosorbent assay (ELISA).

[1] = tested on: blue light-induced retinal atrophy; experiment: SD-OCT quantitative analysis of retina layers, blue light-induced macular disease model; conditions: for ONL (outer nuclear layer) thickness compared with the BL group / RPE layer thickness compared with the BL group: Day 35, p<0.05
Protocol: The C57BL/6 mice, which weighed between 23 and 25 g, were divided into seven groups randomly. In each group, the six mice induced by blue light successfully were incorporated in experiments. The samples dissolved in deuterium-depleted water (DDW) were fed to mice through oral tubes once a day. The groups were named and introduced as follows: • (1) Solvent not classified group (NC): The mice were fed with 0.2 ml deuterium-depleted water (DDW) through tubes; • (2) Negative control group (Blue light (BL)): The mice were fed with 0.2 ml deuterium-depleted water (DDW) through tubes and exposed to blue light; • (3) Low-dosage Y7 probiotics group […]): The mice were fed with low-dosage Y7 probiotics (probiotic counts of 1.0×10^8 CFU/ml dissolved in 0.2 ml DDW per day) and exposed to blue light; • (4) High-dosage Y7 probiotics group […]): The mice were fed with high-dosage Y7 probiotics (probiotic counts of 1.0×10^9 CFU/ml dissolved in 0.2 ml DDW per day) and exposed to blue light; • (5) Positive control group (lutein (LU)): The mice were fed with lutein and exposed to blue light. The recommended human dosage of lutein is 30 mg. The mouse cage (48×25×20 cm) placed inside a stainless ventilated box was equipped with blue light boards as blue light sources around and above. In the experiment of animals exposed to blue light, six-week-old mice staying in the mouse cage were fed with drinking water as well as fodders and exposed to 400 Lux blue light illumination under the light-dark cycle of 12-hour light and 12-hour dark. The experiment was aimed at causing mice' late dry macular disease induced by chronic light injuries for simulating a human being's macular disease after long-term exposure to short-wavelength blue light from 3C products in daily life. The OCT image system (Phoenix Research Laboratories, San Ramon, CA) used in the experiment is constructed based on the principle of spectral-domain optical coherence tomography. In the system, the computed tomography is divided into five layers, that is, Layer 1: the distance from the Ganglion cell layer (GY7L) to the outer plexiform layer (OPL); Layer 2: outer nuclear layer (ONL); Layer 3: the distance between the inner segment (IS) and the outer segment (OS); Layer 4: the distance from IS/OS to RPE; Layer 5: the total retinal thickness from the nerve fiber layer (NFL) to the lower edge of the RPE layer. The five layers were taken for the quantitative analysis by InSight XL (Phoenix Research Laboratories, San Ramon, CA). SD-OCT was used in checking lesions after exposure to blue light such as retinal atrophy and edema on a retina structure. According to the quantitative SD-OCT analysis, changes in all layers of a retina during the experiment were clearly inspected and no lesion like atrophy and edema was detected in any group before the experiment, as show in FIG. 5. Atrophy at the outer nuclear layer (ONL) of mice in the BL group was observed on Day 35, as shown by the arrow in FIG. 3a.

Compound | total retinal thickness compared with the BL group (total retinal thickness; Y7H high-dosage group) | total retinal thickness compared with the NC group (total retinal thickness; Y7H high-dosage group) | total retinal thickness compared with the BL group (total retinal thickness; Y7L low-dosage group) | total retinal thickness compared with the NC group (total retinal thickness; Y7L low-dosage group) | activity of catalase (CAT) compared with the BL group (catalase (CAT); Y7H high-dosage group) | activity of catalase (CAT) compared with the BL group (catalase (CAT); Y7L low-dosage group) | ONL (outer nuclear layer) thickness compared with the BL group ([1]; Y7H high-dosage group) | RPE layer thickness compared with the BL group ([1]; Y7H high-dosage group) | ONL (outer nuclear layer) thickness compared with the BL group ([1]; Y7L low-dosage group) | RPE layer thickness compared with the BL group ([1]; Y7L low-dosage group) | thickness of a retina after long-term exposure to blue light ([1]; high-dosage Y7 probiotics) | thickness of a retina after long-term exposure to blue light ([1]; low-dosage Y7 probiotics) | total retinal thickness compared with the BL group (total retinal thickness; LU lutein group) | total retinal thickness compared with the NC group (total retinal thickness; LU lutein group) | RPE layer thickness compared with the BL group ([1]; LU lutein group) | thickness of a retina after long-term exposure to blue light ([1]; lutein)
Lactobacillus reuteri Y7 [Y7 probiotics] | significant difference | decreased significantly | significant difference | decreased significantly | increased significantly | increased significantly | significant difference | significantly thicker | significant difference | significantly thicker | effectively maintained | effectively maintained |  |  |  | 
CC1=C[C@H](O)CC(C)(C)[C@H]1/C=C/C(C)=C/C=C/C(C)=C/C=C/C=C(C)/C=C/C=C(C)/C=C/C1=C(C)C[C@@H](O)CC1(C)C [lutein, reference compound] |  |  |  |  |  |  |  |  |  |  |  |  | significant difference | decreased significantly | significantly thicker | effectively maintained
